According to PMC6131501, “Urate transporter inhibitor lesinurad is a selective peroxisome proliferator-activated receptor gamma modulator (sPPARγM) in vitro” (Scientific Reports, 2018):
Several values for one entry are separate records, joined by “and”; a condition that tells them apart may be missing. Equal values may be shown once. Entries after “also recorded” stand apart in the source; their conditions may differ.

Tests used:
3T3-L1 cells = experiment: Cytotoxicity in adipocyte differentiation experiment; type: cell-based, murine; conditions: up to 50 μM (data not shown)
Procedure: For this, 3T3-L1 cells were treated with insulin, dexamethasone and isobutylmethylxanthine (IBMX) to induce their differentiation into mature adipocytes.

[1] = Control reporter experiment in absence of a hybrid receptor; type: cell-based; conditions: 30 μM, w/o hybrid receptor
Text: These in vitro test systems are based on a constitutively expressed hybrid receptor composed of the ligand binding domain of the respective human nuclear receptor and the DNA binding domain of the yeast receptor Gal4. A Gal4-inducible firefly luciferase serves as reporter gene and a constitutively expressed renilla luciferase is used for normalization of transfection efficacy and internal toxicity control[18],[19].

[2] = set-up: method as in PMID 27716403, PMID 26951201; conditions: cited from earlier work
full-length PPARγ = molecular target: T1, full-length PPARγ (Homo sapiens, UniProt P37231); experiment: Full-length PPARγ reporter gene assay; type: cell-based
T1 construct: host or cells: HEK293T
T1 sequence (P37231 whole entry): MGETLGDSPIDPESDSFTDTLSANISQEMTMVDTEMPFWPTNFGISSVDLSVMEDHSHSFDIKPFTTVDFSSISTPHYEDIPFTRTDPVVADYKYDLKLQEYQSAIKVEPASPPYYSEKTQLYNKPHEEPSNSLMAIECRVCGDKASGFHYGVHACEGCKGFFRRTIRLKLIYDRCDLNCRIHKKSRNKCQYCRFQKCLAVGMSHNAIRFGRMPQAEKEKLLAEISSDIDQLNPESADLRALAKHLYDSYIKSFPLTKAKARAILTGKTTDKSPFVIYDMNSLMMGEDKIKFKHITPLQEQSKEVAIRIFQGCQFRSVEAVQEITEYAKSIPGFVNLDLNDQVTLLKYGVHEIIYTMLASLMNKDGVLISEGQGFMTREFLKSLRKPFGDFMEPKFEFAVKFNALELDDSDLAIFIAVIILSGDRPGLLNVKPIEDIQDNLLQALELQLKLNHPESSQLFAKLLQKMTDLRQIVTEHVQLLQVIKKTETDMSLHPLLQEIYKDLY
Procedure: HEK293T cells were grown in DMEM high glucose, supplemented with 10% FCS, sodium pyruvate (1 mM), penicillin (100 U/mL) and streptomycin (100 μg/mL) at 37 °C and 5% CO2. The day before transfection, HEK293T cells were seeded in 96-well plates (3·10^4 cells/well). Before transfection, medium was changed to Opti-MEM without supplements. […] 5 h after transfection, medium was changed to Opti-MEM supplemented with penicillin (100 U/mL), streptomycin (100 μg/mL), now additionally containing 0.1% DMSO and the respective test compound or 0.1% DMSO alone as untreated control. Each concentration was tested in duplicates and each experiment was repeated independently at least three times. Following overnight (12-14 h) incubation with the test compounds, cells were assayed for luciferase activity using Dual-Glo™ Luciferase Assay System (Promega) according to the manufacturer’s protocol. Luminescence was measured with an Infinite M200 luminometer (Tecan Deutschland GmbH). […] Fold activation was obtained by dividing the mean RLU of a test compound at a respective concentration by the mean RLU of untreated control.

[3] = test system: urate transporter 1 (URAT1); set-up: method as in PMID 27716403; conditions: cited from earlier work
[4] = molecular target: T2, recombinant PPARγ ligand binding domain (Homo sapiens, UniProt P37231); experiment: Isothermal titration calorimetry (ITC)
T2 sequence (P37231 238-503 limits assumed): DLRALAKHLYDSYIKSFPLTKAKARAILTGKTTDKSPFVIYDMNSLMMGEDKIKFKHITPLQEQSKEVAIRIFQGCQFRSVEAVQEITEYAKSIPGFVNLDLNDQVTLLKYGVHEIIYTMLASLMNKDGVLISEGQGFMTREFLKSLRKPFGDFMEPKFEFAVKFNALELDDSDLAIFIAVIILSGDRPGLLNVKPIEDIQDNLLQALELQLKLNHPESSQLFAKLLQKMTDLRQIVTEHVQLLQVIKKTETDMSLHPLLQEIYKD
Procedure: To confirm direct modulation of PPARγ by lesinurad, we analyzed their interaction by isothermal titration calorimetry (ITC). Due to limited solubility of lesinurad, recombinant PPARγ ligand binding domain (LBD) protein was (reversely) titrated to the drug.
Isothermal titration calorimetry (ITC) was conducted on an Affinity ITC (TA Instruments Affinity ITC). Recombinant PPARγ ligand binding domain protein (138 μM) and lesinurad (40 μM) were each dissolved in a HEPES buffer (25 mM; adjusted to pH 7.5 with KOH; further containing 150 mM KF, 10% glycerol (w/w), 1% DMSO (v/v) and 5 mM DTT). The ITC instrument was adjusted to a temperature of 25 °C and the stirring rate was set at 75 rpm. 190 μL lesinurad solution were filled into the reaction cell and PPARγ ligand binding domain solution was titrated in 41 injections. […] An interval of 200 s was maintained between individual injections. The heats of dilution resulting from titrating PPARγ ligand binding domain protein solution into the buffer solution were recorded in an additional ITC run and subtracted from the raw ITC data obtained for lesinurad.
ITC raw data was analyzed using NanoAnalyze software package (version 3.7.5). An independent binding model was used to fit the reaction enthalpy (ΔH), binding affinity constant (Kd), and stoichiometry (n). Free energy change (ΔG) was calculated from the equation ΔG = −RT ln K and the entropy (ΔS) was calculated from ΔG = ΔH−TΔS.

PPARγ LBD / SRC-1 = PPARγ LBD / SRC-1 (Homo sapiens, UniProt P37231); experiment: PPARγ coactivator recruitment assay (time-resolved FRET), SRC-1; type: biochemical
PPARγ LBD / SRC-1, sequence (Q15788 676-700 partner limits assumed, one chain of several): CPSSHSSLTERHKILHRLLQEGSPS
Text: (§1) We analyzed the ability of lesinurad to induce recruitment of the coactivators steroid receptor coactivator 1 (SRC-1, also known as nuclear receptor coactivator 1 (NCOA1)) and cyclic AMP responsive element binding (CREB) protein (CBP) to the PPARγ ligand binding domain in a time-resolved FRET assay with labeled PPARγ-LBD and coactivator proteins (Fig. 5D).
(§2) Recruitment of coactivator-derived peptides to the PPARγ LBD was studied by homogeneous time-resolved fluorescence resonance energy transfer (HT-FRET or HTRF). Terbium cryptate as streptavidin conjugate (cisbio assays, France) was used as FRET donor. Peptides derived from coactivators SRC-1 [biotin-[…]] or CBP [biotin-[…]] encompassing the coactivator consensus motif LxxLL and N-terminal biotin for stable coupling to streptavidin were purchased (Eurogentec GmbH, Germany). […] FI520 nm was divided by FI620 nm and multiplied with 10,000 giving a dimensionless HTRF signal. Coactivator recruitment by the PPARγ LBD brings FRET donor and acceptor into close proximity resulting in a gain in FRET signal as signal for binding.

PPARγ LBD / CBP = PPARγ LBD / CBP (Homo sapiens, UniProt P37231); experiment: PPARγ coactivator recruitment assay (time-resolved FRET), CBP; type: biochemical
PPARγ LBD / CBP, sequence (Q92793 58-80 partner limits assumed, one chain of several): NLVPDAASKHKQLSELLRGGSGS
Text: as §1, §2

3T3-L1 adipocytes = experiment: Differentiation of 3T3-L1 adipocytes, Oil Red O staining; type: cell-based, murine; conditions: rosiglitazone 2 μM; lesinurad up to 50 μM
Procedure: For this, 3T3-L1 cells were treated with insulin, dexamethasone and isobutylmethylxanthine (IBMX) to induce their differentiation into mature adipocytes. […] 3T3-L1 cells were subcultured in DMEM containing 10% newborn calf serum in a humidified atmosphere at 37 °C, 5% CO2. Cells were differentiated into adipocytes within 14 days according to the method[54] reported by Zebisch and colleagues. In brief, cells were seeded in 6-well plates ([…]). […] At day 5, medium was changed to contain only insulin for another two days. Cells were then kept for lipid droplet accumulation in basal medium without additions until day 15. […] Differentiation of 3T3-L1 cells to adipocytes was confirmed by Oil Red O staining. For this, cells were washed with PBS and then fixed for 60 min with a formaldehyde solution (4% in PBS). Subsequently, cells were rinsed with 60% isopropanol and incubated with Oil Red O solution (0.3%) for 120 min.

**Q.** With `O=C(O)CSc1nnc(Br)n1-c1ccc(C2CC2)c2ccccc12` [lesinurad] as the compound, how does the cytotoxicity (3T3-L1 cells) read?
**A.** no cytotoxicity

**Q.** What about the “reporter transactivation in absence of a hybrid receptor” value [1] of the same compound?
**A.** no reporter transactivation

**Q.** What about the plasma protein binding [2] of the same compound?
**A.** 98%

**Q.** What about the “transactivation efficacy on full-length PPARγ” value (full-length PPARγ; compared to reference agonists) of the same compound?
**A.** higher transactivation efficacy than pioglitazone and rosiglitazone

**Q.** What about the EC50 (full-length PPARγ; full-length human PPARγ, HEK293T, mean ± SEM) of the same compound?
**A.** 21 ± 2 µM

**Q.** And the IC50 [3]?
**A.** 3.5 µM

**Q.** And the Kd ([4]; 25 °C, PPARγ LBD titrated to drug, independent binding model)?
**A.** 1.3 µM

**Q.** What about the ΔS ([4]; 25 °C, calculated from ΔG = ΔH−TΔS) of the same compound?
**A.** 27 J/mol·K and 26,99 J/mol·K

**Q.** And the “n (stoichiometry)” value ([4]; value printed in the picture of Fig. 4)?
**A.** 0,987

**Q.** What about the EC50 (PPARγ LBD / SRC-1; HTRF, PPARγ LBD, 2 h at RT) of the same compound?
**A.** 12 ± 2 µM

**Q.** What about the SRC-1 recruitment efficacy (PPARγ LBD / SRC-1; compared to 1 μM rosiglitazone) of the same compound?
**A.** 91 ± 5%

**Q.** And the EC50 (PPARγ LBD / CBP; HTRF, PPARγ LBD, 2 h at RT)?
**A.** 44 ± 8 µM

**Q.** What about the CBP recruitment efficacy (PPARγ LBD / CBP; compared to 1 μM rosiglitazone) of the same compound?
**A.** 59 ± 4%

**Q.** What about the “lipid accumulation during differentiation (Oil Red O staining)” value (3T3-L1 adipocytes) of the same compound?
**A.** lacked this adipogenic effect; also recorded: does not induce fat accumulation
